Assay results: article PMC12571071, “Preventing neuropathy and improving anticancer chemotherapy with a carbazole-based compound” (Science Advances, 2025)

Columns and labels:
[1] = test system: HeLa cells; assay: 1H NMR metabolomic profiling of HeLa cells; assay type: cell-based, human; settings: 12 μM, 2 hours
Procedure: HeLa cells (1 × 10^6) were seeded in Ø100-mm cell culture dishes and allowed to adhere for 48 hours. Cells were then treated with DMSO or 12 μM Carba1 for 2 hours at 37°C and 5% CO2. After treatment, the medium was removed, and cells were washed with PBS at R.T. before quenching with methanol at −20°C and scrapping ([70]). Dried extracts were obtained by evaporating the solvent under gentle N2 flow and stored at −80°C until analysis. For NMR, extracts were resuspended in 620 μl of 100% D2O phosphate buffer (pH 7.4), and 550 μl was transferred into 5-mm NMR tubes. Untargeted NMR analysis was performed at 27°C on a Bruker Avance IVDr spectrometer (600 MHz, ^1H resonance) with a conventional Broadband Inverse (BBI) probe. ^1H metabolic profiles were acquired using a NOESY experiment with water presaturation (Bruker pulse program noesygppr1d) and a spectral width of 11,904.792 Hz. Experimental parameters included a 10-ms mixing time, 2-s acquisition time, 3-s recycle delay, and 512 scans. The 90°s pulse length was calibrated at ~11.09 μs per sample after automatic shimming and tuning. NMR free induction decays were multiplied by an exponential function corresponding to a line broadening of 0.3 Hz before Fourier transform. […]

[2] = test system: HeLa cells; assay: NAD(P)H autofluorescence imaging in live HeLa cells; assay type: cell-based, human; settings: 12 μM, 24 hours
Procedure: HeLa cells were seeded in four-chamber Labtek plates at 10,000 cells per well. After 48 hours, cells were preincubated with or without 12 μM Carba1 for 2 hours before addition of FK866 (5 and 10 nM). Drugs were added to phenol red–free DMEM medium, supplemented with 10% FBS 1% penicillin/streptomycin. After 24 hours of drug incubation, cells were imaged using a confocal microscope (LSM 710, Zeiss) with a two-photon excitation at 700 nm (Chameleon Vision Laser, Coherent) and a 40×/1.2 water-immersion objective. Detection was performed in single-photon mode using an avalanche photodiode detector (ConfoCor 3). NAD(P)H signal intensity was quantified as the mean signal per cell using ImageJ and normalized to the cell area.

[3] = test system: PTX-induced neuropathy; assay: Rat model of PTX-induced peripheral neuropathy (von Frey, serum NfL, IENFD); assay type: in vivo
Procedure: Control animals received an equivalent volume of the vehicle (cremophor EL:ethanol, 1:1) diluted 1:4 in 0.9% NaCl.
Carba1 was injected intraperitoneally six times (50 mg/kg) on days 0, 1, 2, 4, 7, and 9, resulting in a cumulative dose of 300 mg/kg (Fig. 2F). For each injection, Carba1 was injected intraperitoneally at 50 mg/kg on days 0, 1, 2, 4, 7, and 9, for a cumulative dose of 300 mg/kg, using a stock solution (150 mg/ml; cremophor EL:ethanol, 1:1) diluted to 50 mg/ml in 0.9% NaCl. Control animals for Carba1 received the same volume of the vehicle [cremophor EL:ethanol (1:1) diluted 1:3 in 0.9% NaCl]. […] To prevent cross-exposure through feces and urine, treatment groups were randomized by cage, with each cage housing three animals.
Tactile allodynia, a common sensory disorder reported in animal models of CIPN ([56]), was assessed using an electronic von Frey test (Bioseb) ([68]). Rats were placed in plastic compartments on a wire floor and allowed to habituate for 15 min. […] The maximum force (in grams) causing withdrawal was recorded automatically. The average of two measurements, not differing by more than 10 g, was used as the nociceptive threshold ([68]). Rats were habituated to the compartments 3 days before the first injection, and the experimenter was blinded to treatment groups.
Blood samples were collected on day 15 in vials with a clot activator, left at R.T. for up to 1 hour before centrifugation at 4100 rpm at 20°C for 10 min. Serum was then collected, aliquoted, and stored at −80°C until analysis. To reduce batch effects, serum samples were randomized on assay plates. NfL concentration was measured in the serum using commercial kits (Simple Plex Ella ProteinSimple, USA; Rat NfL Kit ProteinSimple) ([27]).
Skin samples from both hind paws were fixed in 4% PFA overnight at 4°C, followed by sucrose cryoprotection (10, 20, and 30%) at 4°C overnight. After embedding in tissue freezing medium, the samples were at −80°C. Sections (20 μm) were cut using a cryostat at −17°C, washed with PBS for 5 min, and dried. The sections were blocked in PBS/0.2% Triton X-100/1%BSA for 1 hour and then incubated overnight at R.T. with anti-PGP9.5 antibody (1:400). After washing with PBS, sections were incubated with goat anti-rabbit Alexa Fluor488 secondary antibody for 2 hours, and the nuclei were stained with DAPI. Imaging was performed by acquiring 0.5 μm Z-stacks and exposure times for DAPI and fluorescein isothiocyanate set to 600 ms. Quantification followed the method described by Lauria et al. ([69]).

[4] = target: NAMPT (Homo sapiens, UniProt P43490); assay: AS-MS binding assay, NAMPT; settings: 10 μM compound, 3 μM NAMPT
Procedure: To this end, Carba1 or FK866 (positive control of NAMPT binding) was first incubated with NAMPT or carbonic anhydrase (CA; negative control). Protein-ligand complexes were separated from the unbound compounds by size exclusion chromatography (SEC). To quantify the protein-bound fraction, the complexes were then dissociated using reverse-phase chromatography, and the compounds were analyzed and quantified by mass spectrometry.
AS-MS was used to assess compound binding to NAMPT. AS-MS was performed by Edelris SAS (www.edelris.com/), which has developed the commercial AS-MS service “EDEN platform,” based on ([71]). Conditions consisted of protein (NAMPT and CA) at 3 μM and compounds (Carba1 and FK866) at 10 μM dissolved in corporate buffer.

[5] = rat serum, day 15, outliers removed

Sequence of NAMPT (P43490 whole entry, species assumed): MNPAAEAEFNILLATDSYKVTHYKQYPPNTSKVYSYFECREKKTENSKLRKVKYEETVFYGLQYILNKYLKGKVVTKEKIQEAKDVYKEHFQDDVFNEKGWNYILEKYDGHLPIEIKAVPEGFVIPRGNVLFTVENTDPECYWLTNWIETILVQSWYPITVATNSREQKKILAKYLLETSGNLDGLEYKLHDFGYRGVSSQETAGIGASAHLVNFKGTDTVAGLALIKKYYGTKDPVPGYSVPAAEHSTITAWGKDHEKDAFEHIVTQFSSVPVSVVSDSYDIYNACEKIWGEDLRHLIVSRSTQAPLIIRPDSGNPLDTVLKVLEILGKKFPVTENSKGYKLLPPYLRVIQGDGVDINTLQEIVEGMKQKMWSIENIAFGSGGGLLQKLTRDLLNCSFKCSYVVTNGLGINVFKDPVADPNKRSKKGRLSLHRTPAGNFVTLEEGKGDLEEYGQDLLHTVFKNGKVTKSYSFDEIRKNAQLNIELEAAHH

In the case of Cc1cc(-n2cccc2)c(C)c2c1[nH]c1ccc(Cl)cc12 [Compound 1], the GTP levels [1] is reported as “significant increase”, the “NAD+ abundance” value [1] is reported as “significant decrease” and the “increase in NAD(P)H production” value [2] is reported as “about 30%”. For the same molecule, the “IENFD, mean” value ([3]; rat hind paw biopsies, day 15) was 19.54 number/mm, the “IENFD, median” value ([3]; rat hind paw biopsies, day 15) was 19.88 number/mm and the “NfL, mean” value [3, 5] was 22.14 pg/mL. The “NfL, median” value [3, 5] was 22.40 pg/mL, the “effect on PTX-induced tactile allodynia” value ([3]; rat, Carba1 50 mg/kg i.p. x6 with PTX 5 mg/kg i.p. x4) was “prevents PTX-induced tactile allodynia” and the “effect on PTX-induced intraepidermal nerve fiber degeneration” value ([3]; rat, Carba1 cotreatment with PTX) was “prevented PTX-induced intraepidermal nerve fiber degeneration”. For the same molecule, the “tactile allodynia (paw withdrawal threshold, electronic von Frey), agent alone” value ([3]; rat, i.p., PTX 5 mg/kg x4 or Carba1 50 mg/kg x6) was “not analgesic”, the “reduction of IENFD, agent alone” value ([3]; rat, vs controls) was “had no effect” and the “binding to NAMPT (AS-MS)” value [4] was “directly binds to NAMPT”.
